Experimental data taken from patent US20230109801A1 (Blue Oak Pharmaceuticals, Inc., priority 2020, published 2023).
Where a name gives a salt, the structure may show the parent alone.

Test system: mice
Assay: SmartCube in vivo neuropharmacological behavioral assay
Conditions: for minimal effective dose: Mus musculus, ip, read-out: MED (minimal effective dose); for AD: antidepressant, percent probability / AG: analgesic, percent probability / AP: antipsychotic, percent probability / AX: anxiolytic, percent probability / CE: cognitive enhancer, percent probability / HA: hallucinogenic, percent probability / MS: mood stabilizer, percent probability / PS, percent probability / SD: sedative hypnotic, percent probability / SE: side effects, percent probability / UN: uncharacterized CNS activity, percent probability / XG: anxiogenic, percent probability: SmartCube, i.p. 15 min before test, at the MED
Protocol: The compounds were evaluated for their CNS related properties (e.g., the treatment, prevention or diagnosis of CNS or CNS-related disorders and/or amelioration of symptoms) using neuropharmacological screening methods described in S. L. Roberts et al., Front. Neurosci. 2011, 5:103 (hereinafter referred to as “Roberts,” the contents of which are incorporated herein by reference in their entirety).
According to Roberts, intact systems are useful in detecting improvement in disease-relevant endpoints, because psychiatric diseases generally result from disorders of cell-cell communication or circuitry. The endpoints are typically behavioral in nature, often requiring human observation and interpretation. In order to test multiple compounds for behavioral effects relevant to neurological and psychiatric diseases and disorders, PsychoGenics, Inc. (Paramus, N.J. “PGI”) developed SmartCube®, an automated system in which behaviors of compound-treated mice are captured by digital video and analyzed with computer algorithms to facilitate testing of multiple compounds for behavioral effects relevant to psychiatric disease. (D. Brunner et al., Drug Discov. Today 2002, 7:S107-S112; Alexandrov et al., Eur. J. Pharmacol. 2015, 753:127-134; the contents of each of which are incorporated herein by reference in their entirety).
The SmartCube® system is described in Example 2.2 of U.S. Pat. No. 9,758,529 and Example 289 of WIPO Publication No. WO2018/023070, the contents of each of which are incorporated herein by reference in their entirety.
According to the present disclosure, compounds identified may be evaluated using the SmartCube® system. The results of such analysis correlate certain patterns or combinations of behaviors to CNS effects along a percent probability scale of 0-100 where zero (O) reflects the limit of quantitation (LOQ).
The compounds of the present disclosure were evaluated for their CNS related properties (e.g., the treatment, prevention or diagnosis of CNS or CNS-related disorders and/or amelioration of symptoms) using neuropharmacological screening methods described in S. L. Roberts et al., Front. Neurosci. 2011, 5:103 (hereinafter referred to as “Roberts,” the contents of which are incorporated herein by reference in their entirety).
The SmartCube® system described herein was utilized to compare the behavioral signature of a test compound to a database of behavioral signatures obtained using a large set of diverse reference compounds (including but not limited to antipsychotics, anxiolytics, antidepressants and bipolar disorder medicine), thereby predicting the neuropharmacological effects of a test compound by similarity to major classes of compounds. It produces an activity signature indicating the probability that the activity of the test compound at the administered dose matches a given class of neuropharmacological agents. The test compound is simultaneously compared against multiple classes of agents; thus, a separate probability is generated for each behavioral effect measured (such as but not limited to anxiolytic activity and analgesic activity).
The compounds of the present disclosure were dissolved in a mixture of Pharmasolve™ (N-methyl-2-pyrrolidone (NMP)) and were injected i.p. 15 min. before the behavioral test. For each compound, injections were administered at different dose levels (e.g., 0.3, 1, 3, 10 and 30 mg per kg (mpk)). A compound's minimal effective dose (MED; see Table 3) is a measure of the compound's potency. The MED was defined as the dose (in mpk) having 50% or more total activity in SmartCube®. For each behavioral effect measured, results at the MED are presented. CNS activities of the compounds were recorded (see Table 2). In Table 1, a key to the percent probabilities (probability×100) for each behavioral effect (“X”) are defined provided, where LOQ is the limit of quantification.

[1] = dose having 50% or more total activity in SmartCube, i.p.

Molecule: C1=CC2c3ccccc3C1N2C1CCCC1 [Compound 54, 11-Cyclopentyl-11-azatricyclo[6.2.1.0^2,7]undeca-2,4,6,9-tetraene hydrochloride]
- minimal effective dose [1]: 10 to 30 mg/kg
- AD: antidepressant, percent probability: ++++ (50% ≤ X <1 00%)
- AG: analgesic, percent probability: ++ (5% ≤ X < 25%)
- AP: antipsychotic, percent probability: + (LOQ ≤ X < 5%)
- AX: anxiolytic, percent probability: ++ (5% ≤ X < 25%)
- CE: cognitive enhancer, percent probability: + (LOQ ≤ X < 5%)
- HA: hallucinogenic, percent probability: + (LOQ ≤ X < 5%)
- MS: mood stabilizer, percent probability: + (LOQ ≤ X < 5%)
- PS, percent probability: ++ (5% ≤ X < 25%)
- SD: sedative hypnotic, percent probability: + (LOQ ≤ X < 5%)
- SE: side effects, percent probability: + (LOQ ≤ X < 5%)
- UN: uncharacterized CNS activity, percent probability: ++ (5% ≤ X < 25%)
- XG: anxiogenic, percent probability: + (LOQ ≤ X < 5%)

Molecule: 11-[(2E)-Pent-2-en-1-yl]-11-azatricyclo[6.2.1.0^2,7]undeca-2,4,6,9-tetraene hydrochloride [Compound 9]
- AD: antidepressant, percent probability: + (LOQ ≤ X < 5%)
- AG: analgesic, percent probability: + (LOQ ≤ X < 5%)
- AP: antipsychotic, percent probability: + (LOQ ≤ X < 5%)
- AX: anxiolytic, percent probability: + (LOQ ≤ X < 5%)
- CE: cognitive enhancer, percent probability: + (LOQ ≤ X < 5%)
- HA: hallucinogenic, percent probability: + (LOQ ≤ X < 5%)
- MS: mood stabilizer, percent probability: + (LOQ ≤ X < 5%)
- PS, percent probability: + (LOQ ≤ X < 5%)
- SD: sedative hypnotic, percent probability: + (LOQ ≤ X < 5%)
- SE: side effects, percent probability: + (LOQ ≤ X < 5%)
- UN: uncharacterized CNS activity, percent probability: + (LOQ ≤ X < 5%)
- XG: anxiogenic, percent probability: + (LOQ ≤ X < 5%)
- MED (minimal effective dose) [1]: + (30 mg/kg < +)

Molecule: c1ccc2c(c1)C1CCC2N1 [Compound 41, hydrochloride]
- minimal effective dose [1]: 10 to 30 mg/kg
- AD: antidepressant, percent probability: + (LOQ ≤ X < 5%)
- AG: analgesic, percent probability: ++ (5% ≤ X < 25%)
- AP: antipsychotic, percent probability: + (LOQ ≤ X < 5%)
- AX: anxiolytic, percent probability: ++ (5% ≤ X < 25%)
- CE: cognitive enhancer, percent probability: ++ (5% ≤ X < 25%)
- HA: hallucinogenic, percent probability: + (LOQ ≤ X < 5%)
- MS: mood stabilizer, percent probability: + (LOQ ≤ X < 5%)
- PS, percent probability: + (LOQ ≤ X < 5%)
- SD: sedative hypnotic, percent probability: + (LOQ ≤ X < 5%)
- SE: side effects, percent probability: + (LOQ ≤ X < 5%)
- UN: uncharacterized CNS activity, percent probability: ++ (5% ≤ X < 25%)
- XG: anxiogenic, percent probability: + (LOQ ≤ X < 5%)

Molecule: CC1CC2c3ccccc3C1N2C(C)C (stereo not drawn) [Compound 51, 9-Methyl-11-(propan-2-yl)-11-azatricyclo[6.2.1.0^2,7]undeca-2,4,6-tri ene hydrochloride]
- minimal effective dose [1]: 1 to 10 mg/kg
- AD: antidepressant, percent probability: ++++ (50% ≤ X <1 00%)
- AG: analgesic, percent probability: + (LOQ ≤ X < 5%)
- AP: antipsychotic, percent probability: + (LOQ ≤ X < 5%)
- AX: anxiolytic, percent probability: ++ (5% ≤ X < 25%)
- CE: cognitive enhancer, percent probability: + (LOQ ≤ X < 5%)
- HA: hallucinogenic, percent probability: ++ (5% ≤ X < 25%)
- MS: mood stabilizer, percent probability: + (LOQ ≤ X < 5%)
- PS, percent probability: ++ (5% ≤ X < 25%)
- SD: sedative hypnotic, percent probability: + (LOQ ≤ X < 5%)
- SE: side effects, percent probability: + (LOQ ≤ X < 5%)
- UN: uncharacterized CNS activity, percent probability: + (LOQ ≤ X < 5%)
- XG: anxiogenic, percent probability: + (LOQ ≤ X < 5%)

Molecule: C1=CC2NC1c1ccccc12 [Compound 52, 11-Azatricyclo[6.2.1.0^2,7]undeca-2,4,6,9-tetraene hydrochloride]
- minimal effective dose [1]: > 30 mg/kg
- AD: antidepressant, percent probability: + (LOQ ≤ X < 5%)
- AG: analgesic, percent probability: + (LOQ ≤ X < 5%)
- AP: antipsychotic, percent probability: + (LOQ ≤ X < 5%)
- AX: anxiolytic, percent probability: + (LOQ ≤ X < 5%)
- CE: cognitive enhancer, percent probability: + (LOQ ≤ X < 5%)
- HA: hallucinogenic, percent probability: + (LOQ ≤ X < 5%)
- MS: mood stabilizer, percent probability: + (LOQ ≤ X < 5%)
- PS, percent probability: + (LOQ ≤ X < 5%)
- SD: sedative hypnotic, percent probability: + (LOQ ≤ X < 5%)
- SE: side effects, percent probability: + (LOQ ≤ X < 5%)
- UN: uncharacterized CNS activity, percent probability: + (LOQ ≤ X < 5%)
- XG: anxiogenic, percent probability: + (LOQ ≤ X < 5%)

Molecule: Fc1cc2c(cc1F)C1CCC2N1 [Compound 7, 4,5-Difluoro-11-azatricyclo[6.2.1.0^2,7]undeca-2,4,6-triene hydrochloride]
- minimal effective dose [1]: > 30 mg/kg
- AD: antidepressant, percent probability: ++ (5% ≤ X < 25%)
- AG: analgesic, percent probability: ++ (5% ≤ X < 25%)
- AP: antipsychotic, percent probability: + (LOQ ≤ X < 5%)
- AX: anxiolytic, percent probability: +++ (25% ≤ X < 50%)
- CE: cognitive enhancer, percent probability: + (LOQ ≤ X < 5%)
- HA: hallucinogenic, percent probability: + (LOQ ≤ X < 5%)
- MS: mood stabilizer, percent probability: + (LOQ ≤ X < 5%)
- PS, percent probability: + (LOQ ≤ X < 5%)
- SD: sedative hypnotic, percent probability: + (LOQ ≤ X < 5%)
- SE: side effects, percent probability: ++ (5% ≤ X < 25%)
- UN: uncharacterized CNS activity, percent probability: + (LOQ ≤ X < 5%)
- XG: anxiogenic, percent probability: + (LOQ ≤ X < 5%)

Molecule: COc1cccc2c1C1C=CC2N1 (stereo not drawn) [Compound 16, 3-Methoxy-11-azatricyclo[6.2.1.0^2,7]undeca-2,4,6,9-tetraene hydrochloride]
- minimal effective dose [1]: > 30 mg/kg
- AD: antidepressant, percent probability: + (LOQ ≤ X < 5%)
- AG: analgesic, percent probability: + (LOQ ≤ X < 5%)
- AP: antipsychotic, percent probability: + (LOQ ≤ X < 5%)
- AX: anxiolytic, percent probability: ++ (5% ≤ X < 25%)
- CE: cognitive enhancer, percent probability: + (LOQ ≤ X < 5%)
- HA: hallucinogenic, percent probability: + (LOQ ≤ X < 5%)
- MS: mood stabilizer, percent probability: + (LOQ ≤ X < 5%)
- PS, percent probability: + (LOQ ≤ X < 5%)
- SD: sedative hypnotic, percent probability: + (LOQ ≤ X < 5%)
- SE: side effects, percent probability: + (LOQ ≤ X < 5%)
- UN: uncharacterized CNS activity, percent probability: ++ (5% ≤ X < 25%)
- XG: anxiogenic, percent probability: + (LOQ ≤ X < 5%)

Molecule: CC(C)N1C2CCC1c1c(Cl)cccc12 (stereo not drawn) [Compound 14, 3-Chloro-11-(propan-2-yl)-11-azatricyclo[6.2.1.0^2,7]undeca-2,4,6-triene hydrochloride]
- minimal effective dose [1]: > 30 mg/kg
- AD: antidepressant, percent probability: +++ (25% ≤ X < 50%)
- AG: analgesic, percent probability: ++ (5% ≤ X < 25%)
- AP: antipsychotic, percent probability: + (LOQ ≤ X < 5%)
- AX: anxiolytic, percent probability: ++ (5% ≤ X < 25%)
- CE: cognitive enhancer, percent probability: + (LOQ ≤ X < 5%)
- HA: hallucinogenic, percent probability: + (LOQ ≤ X < 5%)
- MS: mood stabilizer, percent probability: + (LOQ ≤ X < 5%)
- PS, percent probability: ++ (5% ≤ X < 25%)
- SD: sedative hypnotic, percent probability: + (LOQ ≤ X < 5%)
- SE: side effects, percent probability: + (LOQ ≤ X < 5%)
- UN: uncharacterized CNS activity, percent probability: + (LOQ ≤ X < 5%)
- XG: anxiogenic, percent probability: + (LOQ ≤ X < 5%)

Molecule: C1=CC2c3ccccc3C1N2C1CC1 [Compound 56, 11-Cyclopropyl-11-azatricyclo[6.2.1.0^2,7]undeca-2,4,6,9-tetraene hydrochloride]
- minimal effective dose [1]: 10 to 30 mg/kg
- AD: antidepressant, percent probability: ++ (5% ≤ X < 25%)
- AG: analgesic, percent probability: + (LOQ ≤ X < 5%)
- AP: antipsychotic, percent probability: ++ (5% ≤ X < 25%)
- AX: anxiolytic, percent probability: ++ (5% ≤ X < 25%)
- CE: cognitive enhancer, percent probability: ++ (5% ≤ X < 25%)
- HA: hallucinogenic, percent probability: + (LOQ ≤ X < 5%)
- MS: mood stabilizer, percent probability: + (LOQ ≤ X < 5%)
- PS, percent probability: + (LOQ ≤ X < 5%)
- SD: sedative hypnotic, percent probability: + (LOQ ≤ X < 5%)
- SE: side effects, percent probability: + (LOQ ≤ X < 5%)
- UN: uncharacterized CNS activity, percent probability: +++ (25% ≤ X < 50%)
- XG: anxiogenic, percent probability: + (LOQ ≤ X < 5%)
